Test results reported in patent US4973587A, “3-arylcarbonyl-1-aminoalkyl-1H-indole-containing antiglaucoma method” (Sterling Drug Inc., priority 1990, dated 1990).

Tested on: mouse vas deferens
Assay: mouse vas deferens test (MVD)
Type: cell-based
Conditions: Mus musculus, inhibition of contractions in mouse vas deferens preparation in vitro; active at 5.0 μM or less
Source text: Med. Assoc. 217, 1392 (1971)]. […] Opth 7, 921-923 (1975); Green and Pederson, Effect of delta-9 Tetrahydrocannabinol on Aqueous Dynamics and Ciliary Body Permeability in the Rabbit Eye., Exptl. Eye Research 15, 499-507 (1973); Colasanti, Craig and Allara, Intraocular Pressure, Ocular Toxicity and Neurotoxicity after Administration of Cannabinol or Cannibigerol, Exptl. Eye Research 39, 252-259 (1984)]. Similarly, synthetic cannabinoids also reduce intraocular pressure [Green, Symunds, Oliver and Elijah, Intraocular Pressure Following Systemic Administration of Cannabinoids, Curr. Eye Research 2, 247-253 (1982); Tiedeman, Shields, Weber, Crow, Coccetto, Harris and Howes, Ophthalmology., 88, 270-277 (1981); Colasanti et al., supra]. Cannabinoid receptor binding sites can be defined as those to which radio-labelled 4-(1,1-dimethylheptyl)-2,3'-dihydroxy-6'alpha-(3-hydroxypropyl)-1',2',3',4',5',6'-hexahydrobiphenyl (CP 55940) binds in a specific and saturable manner, and the binding sites are heterogeneously distributed in the brain [Devane, Dysarz, Johnson, Melvin and Howlett, Determination and Characterization of a Cannabinoid Receptor in Rat Brain, Molecular Pharm. 34, 605-613 (1988)]. Natural and synthetic cannabinoids and representative examples of the compounds of the present invention bind to CP 55940 binding sites. […] It is believed that agonist activity at the cannabinoid receptor mediates the anti-glaucoma actions of cannabinoids, and that agonist activity at this receptor correlates with ocular pressure lowering actions in man.

Going from `Cc1c(C(=O)c2ccc3c(c2)OCO3)c2ccccc2n1CCN1CCOCC1` [Example 1-O] to `Cc1c(C(=O)c2cccc3c2OCO3)c2ccccc2n1CCN1CCOCC1` [Example 1BJ], the IC50 falls from 1.3 µM to 0.31 µM (4.2-fold). The second is the more potent here.

First: COc1cccc(C(=O)c2c(C)n(CCN3CCOCC3)c3ccccc23)c1 [Example 1AA]
Second: Cc1c(C(=O)c2cccc(F)c2)c2ccccc2n1CCN1CCOCC1 [Example 1U]
The IC50 of the first is 9.5-fold lower: 0.2 µM for the first, 1.9 µM for the second.

`COc1ccc(C(=O)c2c(C)n(CCN3CCOCC3)c3ccccc23)cc1OC` [Example 1AB] and `COc1cc(C(=O)c2c(C)n(CCN3CCOCC3)c3ccccc23)cc(OC)c1OC` [Example 1CB] are within 1.5-fold of each other in IC50: 0.068 µM for the first, 0.09 µM for the second.

Compared with `Cc1c(C(=O)c2ccccc2)c2ccccc2n1CCN1CCOCC1` [Example 1AE], `Cc1c(C(=O)c2ccccc2Cl)c2ccccc2n1CCN1CCOCC1` [Example 2CH] is 7.7-fold lower in IC50: 0.7 µM for the first, 0.091 µM for the second. The second is the more potent here.

First: O=C(c1ccccc1)c1cn(CCN2CCOCC2)c2ccccc12 [Example 1AF]
Second: O=C(c1ccccc1F)c1cn(CCN2CCOCC2)c2ccccc12 [Example 2BQ]
The IC50 of the first is 2.2-fold higher: 1.1 µM for the first, 0.5 µM for the second.

`Cc1c(C(=O)c2ccc(Cl)cc2)c2ccccc2n1CCN1CCOCC1` [Example 1AG] and `Cc1ccc(C(=O)c2c(C)n(CCN3CCOCC3)c3ccccc23)cc1` [Example 1Z] are within 1.5-fold of each other in IC50: 0.56 µM for the first, 0.44 µM for the second.

`Cc1c(C(=O)c2ccccc2)c2ccccc2n1C(C)CN1CCOCC1` (centres unmarked) [Example 1AK] and `Cc1c(C(=O)c2cccc(F)c2)c2ccccc2n1C(C)CN1CCOCC1` (centres unmarked) [Example 2AM] are within 1.5-fold of each other in IC50: 0.9 µM for the first, 0.86 µM for the second.

First: COc1ccc(C(=O)c2c(C)n(CCN3CCOCC3)c3ccccc23)c2ccccc12 [Example 1AV]
Second: Cc1ccc(C(=O)c2c(C)n(CCN3CCOCC3)c3ccccc23)c2ccccc12 [Example 2CA]
The IC50 of the first is 2.9-fold higher: 0.026 µM for the first, 0.009 µM for the second. The second is the more potent here.

First: COc1ccc2cc(C(=O)c3c(C)n(CCN4CCOCC4)c4ccccc34)ccc2c1 [Example 1AW]
Second: Cc1c(C(=O)c2ccc3ccccc3c2)c2ccccc2n1CCN1CCOCC1 [Example 1S]
The IC50 of the first is 9.2-fold higher: 0.46 µM for the first, 0.05 µM for the second. The second is the more potent here.

First: COc1ccc(C(=O)c2cn(CCCN3CCOCC3)c3ccc(F)cc23)cc1 [Example 1AX]
Second: COc1ccc(C(=O)c2cn(CCCN3CCOCC3)c3ccccc23)cc1 [Example 1BZ]
The IC50 of the first is higher: > 10 µM for the first, 4.3 µM for the second. The second is the more potent here.

Going from `Cc1cccc(C)c1C(=O)c1c(C)n(CCN2CCOCC2)c2ccccc12` [Example 1BO] to `Cc1c(C(=O)c2c(F)cccc2F)c2ccccc2n1CCN1CCOCC1` [Example 2AG], the IC50 falls from 1.6 µM to 0.37 µM (4.3-fold).

Going from `COc1cccc(C(=O)c2c(C)n(CCN3CCOCC3)c3ccccc23)c1OC` [Example 1BP] to `COc1ccccc1C(=O)c1c(C)n(CCN2CCOCC2)c2ccccc12` [Example 1R], the IC50 falls from 0.26 µM to 0.09 µM (2.9-fold).

`COc1cc(OC)cc(C(=O)c2c(C)n(CCN3CCOCC3)c3ccccc23)c1` [Example 1BQ] and `Cc1cc(C)cc(C(=O)c2c(C)n(CCN3CCOCC3)c3ccccc23)c1` [Example 2AJ] are within 1.5-fold of each other in IC50: 0.42 µM for the first, 0.39 µM for the second.

First: Cc1c(C(=O)c2cccc3ccccc23)c2ccccc2n1CCCN1CCOCC1 [Example 1BU]
Second: O=C(c1cccc2ccccc12)c1c(Cl)n(CCN2CCOCC2)c2ccccc12 [Example 2BG]
The IC50 of the first is 18-fold higher: 0.111 µM for the first, 0.006 µM for the second. The second is the more potent here.

Compared with `Cc1ccc2c(C(=O)c3cccc4ccccc34)c(C)n(CCN3CCOCC3)c2c1` [Example 1BV], `Cc1ccc2c(C(=O)c3cccc4ccccc34)cn(CCN3CCOCC3)c2c1` [Example 2AY] is 7.5-fold lower in IC50: 0.015 µM for the first, 0.002 µM for the second. The second is the more potent here.

Going from `O=C(c1cccc2ccccc12)c1cn(CCN2CCOCC2)c2ccc(Br)cc12` [Example 1BW] to `O=C(c1cccc2ccccc12)c1cn(CCN2CCOCC2)c2ccc(F)cc12` [Example 1CE], the IC50 falls from 0.02 µM to 0.007 µM (2.9-fold). The second is the more potent here.

Compared with `CC(Cn1cc(C(=O)c2cccc3ccccc23)c2ccccc21)N1CCOCC1` (centres unmarked) [Example 1BX], `O=C(c1cccc2ccccc12)c1cn(CCCN2CCOCC2)c2ccccc12` [Example 2AX] is 6-fold lower in IC50: 0.06 µM for the first, 0.01 µM for the second.

First: COc1ccc(C(=O)c2cn(CCCN3CCOCC3)c3c(C)cccc23)cc1 [Example 1CD]
Second: COc1ccc(C(=O)c2c(C)n(CCN3CCOCC3)c3c(C)cccc23)cc1 [Example 1D]
The IC50 of the first is 4.4-fold lower: 0.04 µM for the first, 0.178 µM for the second. The first is the more potent here.

First: Cc1c(C(=O)c2cccc3cc4ccccc4cc23)c2ccccc2n1CCN1CCOCC1 [Example 1CF]
Second: Cc1c(C(=O)c2cc3ccccc3c3ccccc23)c2ccccc2n1CCN1CCOCC1 [Example 1CG]
The IC50 of the first is 2.8-fold lower: 0.06 µM for the first, 0.17 µM for the second. The first is the more potent here.

Going from `COc1ccc(C(=O)c2c(C)n(CCN3CCCC3)c3ccccc23)cc1` [Example 1CI] to `COc1ccc(C(=O)c2c(C)n(CCCN3CCCC3)c3ccccc23)cc1` [Example 1CJ], the IC50 rises from 0.24 µM to > 10 µM. The first is the more potent here.

`CSc1ccc(C(=O)c2c(C)n(CCN3CCOCC3)c3ccccc23)cc1` [Example 1C] and `Cc1c(C(=O)c2ccc(Br)cc2)c2ccccc2n1CCN1CCOCC1` [Example 2AR] are within 1.5-fold of each other in IC50: 0.61 µM for the first, 0.62 µM for the second.

Compared with `COc1ccc(C(=O)c2c(C)n(CCN3CCOCC3)c3ccc(F)cc23)cc1` [Example 1E], `COc1ccc(C(=O)c2c(C)n(CCN3CCOCC3)c3cc(Cl)ccc23)cc1` [Example 1L] is 4.5-fold higher in IC50: 0.12 µM for the first, 0.54 µM for the second. The first is the more potent here.

First: COc1ccc(C(=O)c2c(C)n(CCCN3CCOCC3)c3ccccc23)cc1 [Example 1H]
Second: COCc1ccc(C(=O)c2c(C)n(CCN3CCOCC3)c3ccccc23)cc1 [Example 2BW]
The IC50 of the first is 2.5-fold lower: 0.36 µM for the first, 0.9 µM for the second. The first is the more potent here.

Compared with `COc1ccc(C(=O)c2c(C)n(CCN3CCOCC3)c3c(F)cccc23)cc1` [Example 1J], `COc1ccc(C(=O)c2c(C)n(CCN3CCOCC3)c3c(OC)cccc23)cc1` [Example 1K] is 3.6-fold higher in IC50: 0.073 µM for the first, 0.26 µM for the second. The first is the more potent here.

Compared with `Cc1c(C(=O)c2cc3ccccc3o2)c2ccccc2n1CCN1CCOCC1` [Example 1P], `Cc1c(C(=O)c2cnc3ccccc3c2)c2ccccc2n1CCN1CCOCC1` [Example 2BC] is 1.8-fold higher in IC50: 0.32 µM for the first, 0.57 µM for the second.

Compared with `CCc1ccc(C(=O)c2c(C)n(CCN3CCOCC3)c3ccccc23)cc1` [Example 1X], `Cc1c(C(=O)c2ccc3occc3c2)c2ccccc2n1CCN1CCOCC1` [Example 2AA] is 1.8-fold higher in IC50: 0.071 µM for the first, 0.125 µM for the second.

`COc1ccc(C(=O)c2c(C)n(CCN3CCOCC3)c3ccccc23)c(F)c1` [Example 2AD] and `Cc1c(C(=O)c2ccc(Cl)cc2Cl)c2ccccc2n1CCN1CCOCC1` [Example 2CF] are within 1.5-fold of each other in IC50: 0.18 µM for the first, 0.2 µM for the second.

Compared with `Cc1c(C(=O)c2ccc(Br)c3ccccc23)c2ccccc2n1CCN1CCOCC1` [Example 2AT], `Cc1c(C(=O)c2ccnc3ccccc23)c2ccccc2n1CCN1CCOCC1` [Example 2BE] is 3.4-fold higher in IC50: 0.034 µM for the first, 0.115 µM for the second.

Going from `COc1ccc(C(=O)c2cn(C(C)CN3CCOCC3)c3ccccc23)cc1` (centres unmarked) [Example 2AU] to `O=C(c1ccc2ccccc2c1)c1cn(CCN2CCOCC2)c2ccccc12` [Example 2CJ], the IC50 falls from 3.7 µM to 0.031 µM (120-fold). The second is the more potent here.

`CCC(CN1CCOCC1)n1c(C)c(C(=O)c2ccc3ccccc3c2)c2ccccc21` (centres unmarked) [Example 2AV] and `Cc1c(C(=O)c2ccc3ncccc3c2)c2ccccc2n1CCN1CCOCC1` [Example 2AZ] are within 1.5-fold of each other in IC50: 0.091 µM for the first, 0.102 µM for the second.

Going from `O=C(c1ccc(Br)c2ccccc12)c1cn(CCN2CCOCC2)c2ccccc12` [Example 2AW] to `Cc1ccc(C(=O)c2cn(CCN3CCOCC3)c3ccccc23)c2ccccc12` [Example 2CB], the IC50 falls from 0.005 µM to 0.003 µM (1.7-fold).

`Cc1c(C(=O)c2ccc3cccnc3c2)c2ccccc2n1CCN1CCOCC1` [Example 2BA] and `Cc1c(C(=O)c2cccc3cccnc23)c2ccccc2n1CCN1CCOCC1` [Example 2BB] are within 1.5-fold of each other in IC50: 0.093 µM for the first, 0.129 µM for the second.

Going from `Cc1c(C(=O)c2ccc3ccccc3n2)c2ccccc2n1CCN1CCOCC1` [Example 2BD] to `Cc1c(C(=O)c2cccc3ccoc23)c2ccccc2n1CCN1CCOCC1` [Example 2BI], the IC50 falls from 0.099 µM to 0.017 µM (5.8-fold). The second is the more potent here.

Going from `O=C(c1ccc2ncccc2c1)c1cn(CCN2CCOCC2)c2ccccc12` [Example 2BF] to `O=C(c1ccc2occc2c1)c1cn(CCN2CCOCC2)c2ccccc12` [Example 2BR], the IC50 falls from 0.142 µM to 0.03 µM (4.7-fold). The second is the more potent here.

Compared with `O=C(c1cccc2occc12)c1cn(CCN2CCOCC2)c2ccccc12` [Example 2BJ], `O=C(c1cn(CCN2CCOCC2)c2ccccc12)c1cccc2ccoc12` [Example 2BL] is 1.8-fold lower in IC50: 0.007 µM for the first, 0.004 µM for the second. The second is the more potent here.

Compared with `O=C(c1ccc2ccoc2c1)c1cn(CCN2CCOCC2)c2ccccc12` [Example 2BK], `O=C(c1cccc2cc(Cl)ccc12)c1cn(CCN2CCOCC2)c2ccccc12` [Example 2CE] is 2.2-fold higher in IC50: 0.04 µM for the first, 0.088 µM for the second.

`Cc1c(C(=O)Cc2ccccc2)c2ccccc2n1CCN1CCOCC1` [Example 2BM] and `Cc1c(C(=O)C=Cc2cccc3ccccc23)c2ccccc2n1CCN1CCOCC1` [Example 2BO] are within 1.5-fold of each other in IC50: 0.174 µM for the first, 0.13 µM for the second.

Compared with `COc1ccc(C=CC(=O)c2c(C)n(CCN3CCOCC3)c3ccccc23)cc1` [Example 2BN], `Cc1c(C(=O)c2cc3ccc4cccc5ccc(c2)c3c45)c2ccccc2n1CCN1CCOCC1` [Example 2CG] is 3.5-fold lower in IC50: 0.138 µM for the first, 0.04 µM for the second.

`O=C(c1cn(CCN2CCOCC2)c2ccccc12)C1CCCc2ccccc21` (centres unmarked) [Example 2BP] was tested, and the IC50 was 0.01 µM.

Same assay, conditions: inhibition of contractions in mouse vas deferens preparation in vitro; active at 5.0 μM or less

`O=C(c1ccccc1)c1cn(CCN2CCOCC2)c2ccccc12` [Example 1CH] and `COc1ccc(C(=O)c2c(C)n(CCN3CCOCC3)c3ccccc23)cc1` [Example 1F] are within 1.5-fold of each other in IC50: 1.6 µM for the first, 1.4 µM for the second.

Work on `Cc1c(C(=O)c2ccc3cccnc3c2)c2ccccc2n1CCN1CCOCC1` [Example 2BH] yielded an IC50 of 0.088 µM.
